In patent US20250228865A1, “COMPOUNDS FOR ENHANCING READ THROUGH OF GENES CONTAINING PREMATURE TERMINATION CODONS AND METHODS FOR MAKING AND USING THE SAME” (Sanofi US Services Inc., priority 2022, published 2025):

Experiments:
CFTR G542X = assay: Functional CFTR channel activity, TECC-24 electrophysiology, 16HBE cells (CFTR G542X readthrough); format: cell-based, human
Experimental: (§1) 16HBE human bronchial epithelial cells were seeded onto Transwell 24-well filter inserts coated with human collagen type IV. Cells were seeded 7 days prior to functional testing at a density of 1.7×10^5 cells onto the “apical” chamber filter of the Transwell insert. Cells were grown as submerged cultures (200 μL apical/700 μL basolateral) in Minimal Essential Medium (MEM) containing 10% qualified Fetal Bovine Serum and 1% Penicillin/Streptomycin and incubated at 37° C. and 5% CO2. Growth media on cells was replenished with fresh media every 1-3 days prior to test agent treatment day. After 7 days in culture, the CFTR-mediated chloride (Cl^−) equivalent current (Ieq) of the 16HBE cells was recorded, which may typically form electrically tight epithelia with a transepithelial resistance (Rt) of 2000-6000 Ω·cm2 as described below. Forty-eight hours prior to electrophysiological measurements, fresh growth media containing the test agents was applied to both chambers separating filter bound epithelial monolayer.
(§2) On the day of electrophysiology studies, electrodes of a “Multi-(24-channel) transepithelial current clamp amplifier” (MTECC-24 (TECC-24 for short), EP Devices, Belgium) were soaked in an assay buffer (see below for composition) for at least 2 hours using 24-well Transwell plates without inserts. Cell culture media was replaced in the Transwell assay plates with assay buffer (see below) and the plates were mounted onto a custom-built automated robotic assay platform (Yamaha RCX240S controller) with heated plate holders set at 37° C. for 60 min. After equilibration, transepithelial potential difference (PD) and resistance (Rt) was monitoredat ˜5 min intervals using the TECC-24 transepithelial current clamp. Electrode potential differences were monitored for each pair of Ag/AgCl voltage electrodes by taking voltage measurements from a control (“blank”) plate with matching buffer solutions and 16HBE cells that were not treated with any test agent. PD values for each electrode pair were subtracted from the blank plate from that of the test plates at each time point. Ieq was calculated from the corrected PD values and Rt using Ohm's law. Ieq values were slope corrected to account for measurement drift over time using the equation: Slope corrected value=calculated Ieq−((time x slope)+y-intercept) with the slope and y-intercept calculated from the data points captured during the initial baseline period and following addition of the CFTR inhibitor.
(§3) The equivalent current (Ieq) traces associated with CFTR channel activation were plotted as baseline subtracted mean±standard deviation from 3-4 separate wells on the 24-well Transwell (n=3-4). There are 4 recording periods, with the first set of data points recorded baseline Ieq currents prior to sequential activation of available CFTR channels with forskolin (10 μM) and then in combination with potentiator VX-770/ivacaftor (1 μM). Recorded the last set of data points in the presence of CFTR inhibitor CFTRinh-172 (20 μM) to confirm that currents are mediated via activation of CFTR channels. The test agents and control/reference compounds were pre-diluted to 10-fold concentrations in assay buffer and added manually using a multi-channel pipette to both the basolateral and apical side of the membrane (test plates only). Employed CFTR-mediated changes in Ieq, (i.e. forskolin/VX-770 activated currents) to measure functional CFTR surface expression or treatment-related functional rescue of mutant CFTR.
(§4) The magnitude of test agent mediated enhancement of functional CFTR currents was calculated by comparing forskolin/VX-770 stimulated Ieq relative to baseline/CFTRinh-172 Ieq following 48 hour pretreatment with test agent(s) and normalizing to the forskolin/VX-770 stimulated Ieq determined following 48 hour pretreatment with a maximally effective concentration a reference control aminoglycoside agent (typically 110 μM G418). […]

CFTR R1162X = assay: Functional CFTR channel activity, TECC-24 electrophysiology, 16HBE cells (CFTR R1162X readthrough); format: cell-based, human
Experimental: as §1, §2, §3, §4

[1] = RTM 5 uM, eRF3 modulator (CC-90009) 10 uM, G418 10 uM
[2] = RTM 0.5 uM, eRF3 modulator (CC-90009) 1 uM, G418 10 uM
[3] = RTM 1 uM, no eRF3 modulator, G418 10 uM
[4] = RTM 5 uM, no eRF3 modulator, G418 10 uM
[5] = RTM 0.5 uM, eRF3 modulator (CC-90009) 1 uM, ELX-02 100 uM
[6] = RTM conc. —, eRF3 modulator (CC-90009) 1 uM, ELX-02 100 uM
[7] = RTM 0.5 uM, eRF3 modulator (CC-90009) 1 uM, Paramomycin 2000 uM

O=C1O[C@H](CO)CN1c1ccc(OCc2c(Cl)cccc2Cl)cc1 [drawing 842]
Currents (% of 110 μM G418 (Max effect)) (CFTR G542X; [1]): 323 % of 110 μM G418 (Max effect)

O=C1N[C@H](CO)CN1c1ccc(OCc2c(Cl)cccc2Cl)cn1 [drawing 831]
Currents (% of 110 μM G418 (Max effect)) (CFTR G542X; RTM 1 uM, no eRF3 modulator, ELX-02 100 uM): 79 % of 110 μM G418 (Max effect)

OCc1cn(-c2ncc(OCc3c(Cl)cccc3Cl)cn2)cn1 [drawing 822]
Currents (% of 110 μM G418 (Max effect)) (CFTR G542X; [2]): 429 % of 110 μM G418 (Max effect)

Cc1cccc(C(F)(F)F)c1COc1ccc(N2CC(CO)OC2=O)cc1 (stereo not drawn) [drawing 839]
Currents (% of 110 μM G418 (Max effect)) (CFTR G542X; [3]): 76 % of 110 μM G418 (Max effect)

OCc1cn(-c2ncc(OCc3c(Cl)cccc3Cl)cn2)cn1 [drawing 837]
Currents (% of 110 μM G418 (Max effect)) (CFTR G542X; RTM 0.5 uM, no eRF3 modulator, Paramomycin 2000 uM): 5 % of 110 μM G418 (Max effect)

O=C1O[C@H](CO)CN1c1ccc(OCc2c(Cl)cccc2Cl)cc1 [drawing 841]
Currents (% of 110 μM G418 (Max effect)) (CFTR G542X; [4]): 54 % of 110 μM G418 (Max effect)

OCc1cn(-c2ncc(OCc3c(Cl)cccc3Cl)cn2)cn1 [drawing 824]
Currents (% of 110 μM G418 (Max effect)) (CFTR G542X; [5]): 421 % of 110 μM G418 (Max effect)

OCc1ncn(-c2ncc(OCc3c(Cl)cccc3C(F)(F)F)cn2)n1 [drawing 836]
Currents (% of 110 μM G418 (Max effect)) (CFTR G542X; RTM 3 uM, eRF3 modulator (CC-90009) 1 uM, ELX-02 100 uM): 263 % of 110 μM G418 (Max effect)

OCc1ncn(-c2ncc(OCc3c(Cl)cccc3C(F)(F)F)cn2)n1 [drawing 835]
Currents (% of 110 μM G418 (Max effect)) (CFTR G542X; [6]): 60 % of 110 μM G418 (Max effect)

O=C1O[C@H](CO)CN1c1ccc(OCc2c(Cl)cccc2Cl)cc1 [drawing 817]
Currents (% of 110 μM G418 (Max effect)) (CFTR R1162X; [4]): 54 % of 110 μM G418 (Max effect)

OCc1cn(-c2ncc(OCc3c(Cl)cccc3Cl)cn2)cn1 [drawing 838]
Currents (% of 110 μM G418 (Max effect)) (CFTR G542X; [7]): 140 % of 110 μM G418 (Max effect)

OCc1cn(-c2ncc(OCc3c(Cl)cccc3Cl)cn2)cn1 [drawing 821]
Currents (% of 110 μM G418 (Max effect)) (CFTR G542X; RTM 0.5 uM, no eRF3 modulator, G418 10 uM): 78 % of 110 μM G418 (Max effect)

O=C1O[C@H](CO)CN1c1ccc(OCc2c(Cl)cccc2Cl)cc1 [drawing 818]
Currents (% of 110 μM G418 (Max effect)) (CFTR R1162X; [1]): 314 % of 110 μM G418 (Max effect)

O=C1N[C@H](CO)CN1c1ccc(OCc2c(Cl)cccc2Cl)cn1 [drawing 832]
Currents (% of 110 μM G418 (Max effect)) (CFTR G542X; [6]): 83 % of 110 μM G418 (Max effect)

OCc1cn(-c2ncc(OCc3c(Cl)cccc3Cl)cn2)cn1 [drawing 814]
Currents (% of 110 μM G418 (Max effect)) (CFTR R1162X; [7]): 183 % of 110 μM G418 (Max effect)

Cc1cccc(C(F)(F)F)c1COc1ccc(N2CC(CO)OC2=O)cc1 (stereo not drawn) [drawing 815]
Currents (% of 110 μM G418 (Max effect)) (CFTR R1162X; [3]): 76 % of 110 μM G418 (Max effect)

O=C1O[C@@H](CO)CN1c1ccc(OCc2c(Cl)cccc2Cl)cc1 [drawing 820]
Currents (% of 110 μM G418 (Max effect)) (CFTR R1162X; [1]): 320 % of 110 μM G418 (Max effect)

OCc1cn(-c2ncc(OCc3c(Cl)cccc3Cl)cn2)cn1 [drawing 798]
Currents (% of 110 μM G418 (Max effect)) (CFTR R1162X; [2]): 472 % of 110 μM G418 (Max effect)

OCc1cn(-c2ncc(OCc3c(Cl)cccc3Cl)cn2)cn1 [drawing 823]
Currents (% of 110 μM G418 (Max effect)) (CFTR G542X; RTM 0.5 uM, no eRF3 modulator, ELX-02 100 uM): 50 % of 110 μM G418 (Max effect)

OCc1ccn(-c2ncc(OCc3c(Cl)cccc3Cl)cn2)n1 [drawing 802]
Currents (% of 110 μM G418 (Max effect)) (CFTR R1162X; [6]): 63 % of 110 μM G418 (Max effect)

OCc1cn(-c2ncc(OCc3c(Cl)cccc3Cl)cn2)cn1 [drawing 800]
Currents (% of 110 μM G418 (Max effect)) (CFTR R1162X; [5]): 473 % of 110 μM G418 (Max effect)
